Test results from PubChem BioAssay AID652002 (Sanford-Burnham Center for Chemical Genomics, 2013).
Active and inactive are the calls of the source. No rule for the calls is given here.

Assays:
[1] = TRAIL sensitizers in caspase-8 expressing neuroblastoma cells, dose response, NB7 cells plus caspase-8, luminescence, panel (AID 652002); conditions: NB7 neuroblastoma +caspase-8, no TRAIL, compound-alone cytotoxicity counter-screen, luminescence viability, NB7+Caspase-8
[2] = target: Tumor necrosis factor receptor superfamily member 10B (Homo sapiens) (UniProt O14763); experiment: as above; conditions: NB7 neuroblastoma +caspase-8, TRAIL sensitization, luminescence viability; NB7+Caspase-8; with TRAIL, mean of runs
NB7+Caspase-8 = experiment: as above; conditions: NB7 neuroblastoma +caspase-8, TRAIL sensitization, luminescence viability, with TRAIL
[3] = run 1, single replicate panel EC50
[4] = run 2, single replicate panel EC50

Tumor necrosis factor receptor superfamily member 10B (Homo sapiens), sequence (O14763 whole entry, looked up): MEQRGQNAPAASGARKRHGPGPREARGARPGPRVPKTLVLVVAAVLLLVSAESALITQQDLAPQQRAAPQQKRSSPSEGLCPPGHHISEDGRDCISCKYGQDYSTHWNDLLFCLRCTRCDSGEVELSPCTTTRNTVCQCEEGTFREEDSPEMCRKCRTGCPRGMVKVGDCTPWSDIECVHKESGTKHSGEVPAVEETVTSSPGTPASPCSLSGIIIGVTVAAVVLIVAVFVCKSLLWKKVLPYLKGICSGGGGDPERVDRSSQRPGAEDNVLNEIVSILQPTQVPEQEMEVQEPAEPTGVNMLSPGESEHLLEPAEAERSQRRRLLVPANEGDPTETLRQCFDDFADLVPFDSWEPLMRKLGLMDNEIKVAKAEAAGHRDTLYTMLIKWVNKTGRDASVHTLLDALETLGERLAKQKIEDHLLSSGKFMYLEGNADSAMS

Structure (SMILES) | EC50 ([1]; mean of runs) | EC50 [1, 3] | EC50 [1, 4] | EC50 [2] | EC50 (NB7+Caspase-8; [3]) | EC50 (NB7+Caspase-8; [4])
CC1(C)N=C(N)N=C(N)N1c1ccc(Oc2ccc(Cl)cc2)c(Cl)c1 | inactive | 1.64 µM | 0.423 µM | inactive | 1.33 µM | 0.948 µM
C=Cc1ccc(Cn2c(C)c(C(=O)NCc3cccc(C(F)(F)F)c3)sc2=O)cc1 | > 12.5 µM (inactive) | > 12.5 µM | > 12.5 µM | > 12.5 µM (inactive) | > 12.5 µM | > 12.5 µM
C#Cc1ccc(NC(=O)C2(C)CCN2C(=O)Cc2ccc(C(C)C)cc2)cc1 (stereo not given) | inactive | > 12.5 µM | 8.26 µM | > 12.5 µM (inactive) | > 12.5 µM | > 12.5 µM
COc1ccc(NS(=O)(=O)c2cccc(C(=O)N/N=C/c3c(F)c(F)c(F)c(F)c3F)c2)cc1 | inactive | > 12.5 µM | 11.4 µM | > 12.5 µM (inactive) | > 12.5 µM | > 12.5 µM
O=c1[nH]c(=S)[nH]c2c1C(c1ccc(Cl)c(Cl)c1)OC(CCc1ccccc1)C2 (stereo not given) | > 12.5 µM (inactive) | > 12.5 µM | > 12.5 µM | > 12.5 µM (inactive) | > 12.5 µM | > 12.5 µM
CN(C)CCCN(C(=O)c1ccc(S(=O)(=O)N2CCCc3ccccc32)cc1)c1nc2ccc(F)cc2s1 | > 12.5 µM (inactive) | > 12.5 µM | > 12.5 µM | > 12.5 µM (inactive) | > 12.5 µM | > 12.5 µM
CCCCCc1cc(=O)oc2c(C(CCN(CC)CC)c3cc(OC)c(OC)c(OC)c3)c(OC)cc(OC)c12 (stereo not given) | > 12.5 µM (inactive) | > 12.5 µM | > 12.5 µM | inactive | > 12.5 µM | 10.3 µM
CCOC(=O)c1sc(NC(=O)c2cc(-c3ccccc3C)nc3ccccc23)c(C#N)c1C | > 12.5 µM (inactive) | > 12.5 µM | > 12.5 µM | > 12.5 µM (inactive) | > 12.5 µM | > 12.5 µM
Nc1ccccc1C(=O)NN=Cc1cccc([N+](=O)[O-])c1 | inactive | > 12.5 µM | 9.8 µM | inactive | > 12.5 µM | 7.52 µM
O=C(Nc1ccc(Br)cc1F)c1ccc2c(c1)OCCO2 | inactive | > 12.5 µM | 11.2 µM | inactive | > 12.5 µM | 12.5 µM
Cc1cccc2nc(=S)n(C(=O)c3ccco3)n12 | > 12.5 µM (inactive) | > 12.5 µM | > 12.5 µM | > 12.5 µM (inactive) | > 12.5 µM | > 12.5 µM
O=C(NC1=NCCS1)c1cc2ccccc2o1 | inactive | > 12.5 µM | 4.22 µM | inactive | 5.35 µM | 10.4 µM
O=C(Nc1ccc2ccccc2c1)c1ccc(Cl)cc1 | > 12.5 µM (inactive) | > 12.5 µM | > 12.5 µM | > 12.5 µM (inactive) | > 12.5 µM | > 12.5 µM
C/C(=N\NC(=O)c1n[nH]c2c1CCC2)c1ccco1 | > 12.5 µM (inactive) | > 12.5 µM | > 12.5 µM | > 12.5 µM (inactive) | > 12.5 µM | > 12.5 µM
COc1cc(NC(=O)c2cncc(-c3ccc(C#N)cc3)c2)cc(C(=O)Nc2cccc(C(F)(F)F)c2)c1 | > 12.5 µM (inactive) | > 12.5 µM | > 12.5 µM | > 12.5 µM (inactive) | > 12.5 µM | > 12.5 µM
O=C1CCCc2nc(N3CCc4ccccc43)ncc21 | > 12.5 µM (inactive) | > 12.5 µM | > 12.5 µM | > 12.5 µM (inactive) | > 12.5 µM | > 12.5 µM
O=C1CCCCC1Sc1nnc(-c2ccc3c(c2)OCO3)o1 (stereo not given) | inactive | > 12.5 µM | 11 µM | > 12.5 µM (inactive) | > 12.5 µM | > 12.5 µM
CCCC1(CCC)C(=O)NC(=NCc2ccccc2)NC1=O | > 12.5 µM (inactive) | > 12.5 µM | > 12.5 µM | > 12.5 µM (inactive) | > 12.5 µM | > 12.5 µM
Cc1ccc(NC(=O)c2cc3ccccc3o2)nc1 | inactive | 7.34 µM | 11 µM | inactive | > 12.5 µM | 8.86 µM
CCOC(=O)C(=C1Nc2ccccc2N1)n1c(-c2cccnc2)nc2ccccc21 | inactive | > 12.5 µM | 10.5 µM | inactive | > 12.5 µM | 9.47 µM

Structure (SMILES) | EC50 ([1]; mean of runs) | EC50 [1, 3] | EC50 [1, 4] | EC50 [2] | EC50 (NB7+Caspase-8; [3]) | EC50 (NB7+Caspase-8; [4])
Cc1ccc(NC(=O)CSc2nc3ccc(Nc4nc(N5CCOCC5)nc(N5CCOCC5)n4)cc3s2)cc1 | > 12.5 µM (inactive) | > 12.5 µM | > 12.5 µM | > 12.5 µM (inactive) | > 12.5 µM | > 12.5 µM
O=Nc1ccc(NO)c2ccccc12 | > 12.5 µM (inactive) | > 12.5 µM | > 12.5 µM | inactive | > 12.5 µM | 6.54 µM
c1ccc(-c2cnc(-c3ccccn3)nn2)cc1 | inactive | 5.74 µM | 10 µM | inactive | > 12.5 µM | 5.78 µM
C#CC(=O)CC1(CN(Cc2ccccc2)C(=O)OC(C)(C)C)CCCCC1 | inactive | 7.26 µM | 1.52 µM | inactive | 3.12 µM | 7.51 µM
Cc1nc2cc(NC(=O)Nc3cccc([N+](=O)[O-])c3)ccc2n1C | > 12.5 µM (inactive) | > 12.5 µM | > 12.5 µM | inactive | > 12.5 µM | 6.56 µM
CCCCc1nc(NCCN)c(C#N)c2c1CSC(C)(C)C2 | > 12.5 µM (inactive) | > 12.5 µM | > 12.5 µM | > 12.5 µM (inactive) | > 12.5 µM | > 12.5 µM
Cc1cc2nc(-c3ccc(SCC(=O)Nc4nccs4)nc3)[nH]c2cc1C | > 12.5 µM (inactive) | > 12.5 µM | > 12.5 µM | inactive | 5.16 µM | > 12.5 µM
Cc1ccc(-n2nnc(-c3cccnc3Cl)n2)cc1 | > 12.5 µM (inactive) | > 12.5 µM | > 12.5 µM | > 12.5 µM (inactive) | > 12.5 µM | > 12.5 µM
CCN(CC)S(=O)(=O)c1ccc(C(=O)OCC(=O)Nc2ccc(-c3nc4ccc(C)cc4s3)cc2)cc1 | > 12.5 µM (inactive) | > 12.5 µM | > 12.5 µM | > 12.5 µM (inactive) | > 12.5 µM | > 12.5 µM
COc1ccc(OCC(=O)N/N=C/C=C/c2ccccc2)cc1 | inactive | 10.3 µM | > 12.5 µM | inactive | > 12.5 µM | 1.96 µM
COc1ccc(-c2cc(C(=O)OCC(=O)Nc3ccc4c(c3)OCO4)c3ccccc3n2)cc1 | inactive | 6.39 µM | 6.23 µM | inactive | > 12.5 µM | 7.82 µM
CCSc1ccc(-c2ccc(C)cc2)nn1 | inactive | > 12.5 µM | 8.12 µM | inactive | > 12.5 µM | 7.07 µM
COc1ccccc1/C=C/C=N/n1c(-c2cc(-c3ccccc3)n[nH]2)n[nH]c1=S | > 12.5 µM (inactive) | > 12.5 µM | > 12.5 µM | > 12.5 µM (inactive) | > 12.5 µM | > 12.5 µM
Fc1ccc(-c2cnn3c(-c4ccncc4)ccnc23)cc1 | > 12.5 µM (inactive) | > 12.5 µM | > 12.5 µM | > 12.5 µM (inactive) | > 12.5 µM | > 12.5 µM
Cc1c(P(=S)(c2ccccc2)c2ccccc2)[n+]2ccccc2n1CCc1ccccc1 | > 12.5 µM (inactive) | > 12.5 µM | > 12.5 µM | > 12.5 µM (inactive) | > 12.5 µM | > 12.5 µM
Cc1ccc(S(=O)(=O)Nc2ccccc2C(=O)Nc2nc(-c3ccc(F)cc3)cs2)cc1 | inactive | > 12.5 µM | 8.36 µM | inactive | > 12.5 µM | 9.9 µM
CCOC(=O)c1sc(NC(=O)Nc2ccc(F)cc2)nc1C | > 12.5 µM (inactive) | > 12.5 µM | > 12.5 µM | > 12.5 µM (inactive) | > 12.5 µM | > 12.5 µM
Cc1cc(N/N=C/c2ccccc2)nc(NCc2ccccc2)n1 | > 12.5 µM (inactive) | > 12.5 µM | > 12.5 µM | inactive | > 12.5 µM | 10.9 µM
CC1(C)N=C(N)N=C(N)N1c1ccc(CCCCc2ccccc2)cc1 | inactive | > 12.5 µM | < 0.39 µM | < 0.39 µM (inactive) | < 0.39 µM | < 0.391 µM
CCN(CC)c1ccc(/C=N/NC(=O)c2ccco2)cc1 | > 12.5 µM (inactive) | > 12.5 µM | > 12.5 µM | > 12.5 µM (inactive) | > 12.5 µM | > 12.5 µM
